Results on two compounds are retold here after US20060009357A1, “Azo dye, ink jet recording ink, heat sensitive recording material, color toner, color filter, ink jet recording method, ink cartridge and ink jet printer” (FUJI PHOTO FILM CO., LTD., priority 2004, published 2006).

Series [1] is described as follows: Light fastness of recorded image (xenon light, weatherometer). The series is classed as physicochemical. More on the design: key: An image having a dye retention of 80% or higher at every measuring point was graded A; An image having a dye retention lower than 80% at one or two out of three points was graded B; An image having a dye retention lower than 80% at every point was graded C. Conditions: dye retention after xenon light 85,000 lux for 7 days; initial densities 1, 1.5, 2.0; Super Photo Grade paper. As for the experimental part:
An image was recorded on photo glossy paper (Super Photo Grade, available from Fuji Photo Film Co., Ltd.) on ink jet printer (PM-770C, available from Seiko Epson Corp.) by using each of ink liquids A to I. The resulting image was evaluated for hue, light fastness, and ozone resistance as follows.
As to light fastness, the image density immediately after recording (initial density: Ci) was measured with a reflection densitometer X-Rite 310TR. After the image was exposed to xenon light (85,000 lux) for 7 days in a weatherometer (Atlas C.65, from Atlas Electric Devices Co.), the image density (Cf) was measured again at three points whose initial densities were 1, 1.5, and 2.0. A dye retention (%) was calculated from equation: Dye retention (%)=[…]
An image having a dye retention of 80% or higher at every measuring point was graded A. An image having a dye retention lower than 80% at one or two out of three points was graded B. An image having a dye retention lower than 80% at every point was graded C.

A short description of series [2]: Ozone resistance of recorded image (ozone gas chamber). Conditions: dye retention after ozone gas 5 ppm for 24 hours; three density points; Super Photo Grade paper. The series is classed as physicochemical. Here is the method: An image was recorded on photo glossy paper (Super Photo Grade, available from Fuji Photo Film Co., Ltd.) on ink jet printer (PM-770C, available from Seiko Epson Corp.) by using each of ink liquids A to I. The resulting image was evaluated for hue, light fastness, and ozone resistance as follows. As to ozone resistance, the recorded image was left to stand in a chamber having an ozone gas concentration of 5 ppm for 24 hours. A dye retention after exposure to ozone was obtained in the same manner as for evaluation of light fastness. The ozone concentration in the chamber was set with an ozone gas monitor (OZG-EM-01, available from […] Co., Ltd.). An image having a dye retention of 70% or higher at every measuring point was graded A. An image having a dye retention lower than 70% at one or two out of three points was graded B. An image having a dye retention lower than 70% at every point was graded C.

As to `Cn1c(=O)cc2c3c(c(Nc4ccc(Nc5nc(O)nc(Nc6cc(S(=O)(=O)[O-])ccc6S(=O)(=O)O)n5)cc4S(=O)(=O)O)ccc31)C(=O)c1ccccc1-2.[Na+]` [h-2], the “Light Fastness” value in series [1] was “B”. Besides, the Ozone fastness entry in series [2] was “C (An image having a dye retention lower than 70% at every point was graded C)”.

For the compound `O=C(O)c1ccccc1/N=N/c1c(S(=O)(=O)O)cc2cc(S(=O)(=O)[O-])cc(Nc3nc(O)nc(Nc4ccccc4C(=O)O)n3)c2c1O.[Na+]` [h-3], in series [1], the “Light Fastness” value is listed as “C (An image having a dye retention lower than 80% at every point was graded C)”. Moreover, in series [2], the Ozone fastness result is recorded as “C (An image having a dye retention lower than 70% at every point was graded C)”.
